Data: patent US20100331812A1, “Pharmaceutical Formulations for Iontophoretic Delivery of an Immunomodulator” (Nitric BioTherapeutics, Inc., priority 2009, published 2010)

Key:
[1] = Solubility of imiquimod in excipient formulation, by HPLC; format: physicochemical; conditions: about 3 mg/mL imiquimod in about 30% w/w PEG 400, 10% w/w glycerin, 3% w/w polysorbate 80 at pH 4
Experimental: (§1) The effect of iontophoresis on the permeation profile of imiquimod across hairless rat skin in vitro was examined. The solubility of imiquimod was tested in various solvent matrices and a formulation with acceptable solubility was employed for further in vitro and in vivo studies as described herein. The following methods were performed.
Using the above methods, various excipients were tested to prepare a formulation with sufficient solubility for imiquimod.

[2] = In vitro permeation across hairless rat skin, Franz diffusion cells, with tape stripping and skin extraction; format: in vitro ADME; conditions: for cumulative amount of drug permeated at 24 hr, passive: passive diffusion
Experimental: as §1
For the in vitro studies, Franz diffusion cells were employed. Hairless rats were euthanized by carbon dioxide asphyxiation and the abdominal skin area was excised and carefully cleaned to remove excess fat. The skin was then mounted onto Franz diffusion cells. Citrate buffer with 20% ethanol was employed as the receptor buffer and the drug formulation was placed in the donor chamber. For iontophoretic delivery, a silver/silver chloride electrode system was used. […] Samples were taken at predetermined time points and the receptor chamber was replenished with fresh receptor buffer accordingly. At completion, the skin samples were dismounted and washed with the receptor buffer to remove excess drug. Tape stripping and skin extraction studies were performed to quantify the amount of the drug in the skin. All the samples were analyzed via HPLC (C18 column; mobile phase: acetonitrile/50 mM ammonium acetate (70:30); injection volume: 10 μl UV detection at 250 nm).

[3] = In vivo skin depot formation and desorption, 2% w/w imiquimod formulation with Transcutol P; parameters: species or system hairless rat
Experimental: In this example the formation and pharmacokinetics of an imiquimod skin depot following iontophoretic delivery in an in vivo hairless rat model were examined.
(§2) A topical delivery system containing 2% w/w drug formulation (consisting of 20% PEG 400, 10% propylene glycol, 20% Transcutol P, 3% Tween 80 and 10% glycerin; in w/w, final pH 3.6) was employed. The formulation was loaded into a cartridge and iontophoresis (0.2 mA/cm^2, 15 min) was used to deliver the drug into the skin using the hairless rat model as described herein. A passive delivery control was run for comparison. […] Transepidermal water loss (TEWL) measurements were taken to ensure the removal of the stratum corneum.

[4] = Skin irritation or redness observed in the in vivo studies; parameters: species or system hairless rat; conditions: any of the in vivo studies
Experimental: as §2

[5] = cited from earlier work
[6] = In vivo skin depot quantification, 0.3% w/w imiquimod formulation
From the text: The effect of iontophoresis on its ability to enhance delivery of 0.3% w/w imiquimod (pH 4.0) formulation in vivo into the stratum corneum and the underlying skin (lower epidermis and dermis) was examined.
Hairless rats were anesthetized using Ketamine and Xylazine. An area on the abdomen was marked and cleaned. Drug formulation was loaded onto an iontophoretic drug cartridge and was secured on the area with tape. For iontophoretic delivery, the cartridge was connected to a current source and a TransQ iontophoretic patch (Iomed) served as the counter electrode. A current density of 0.2 mA/cm^2 was applied for 15 min. At the end of 15 min, the drug loaded cartridges were removed and excess drug on the site was removed. Tape stripping (3M Transpore™ tape) was performed to quantify the drug levels in the stratum corneum. Transepidermal water loss (TEWL) measurements were also taken to ensure the complete removal of the stratum corneum. The rats were then euthanized and the skin samples were excised for further analysis. A skin extraction assay was performed to quantify the drug levels in the underlying skin immediately after 15 min iontophoresis or passive.

[7] = in vivo, 2% w/w, 72 hrs after application
[8] = 0.3% w/w, 0.2 mA/cm^2 for 15 min
[9] = 0.3% w/w, pH 4.0, after about 15 min of treatment

Question: Which solubility level [1] does the source give for CC(C)Cn1cnc2c(N)nc3ccccc3c21 [Imiquimod] here?
Answer: Its solubility level is “about 0.3%”.

Question: And the “cumulative amount of drug permeated at 24 hours, iontophoresis” value ([2]; 0.3% w/w formulation, 0.2 mA/cm^2 for 15 min, then passive diffusion to 24 hr)?
Answer: Its value is 22.41 μg/cm^2.

Question: What about the permeation following iontophoresis ([2]; 0.3% w/w formulation, iontophoresis for 15 min, end of 24 hr) of the same compound?
Answer: The permeation following iontophoresis was “approximately 22 pg/cm”.

Question: And the “cumulative amount of drug permeated at 24 hr, passive” value ([2]; 0.3% w/w formulation)?
Answer: Its value is 2.24 μg/cm^2.

Question: And the “cumulative amount of drug permeated at 24 hr, passive” value ([2]; 0.3% w/w formulation, listed as imiquimod)?
Answer: The value was “approximately 2 μg/cm^2”.

Question: What about the “amount of drug in the underlying skin, iontophoretic” value ([2]; in vitro, 0.2 mA/cm^2 15 min, end of 24 hr study, skin extraction) of the same compound?
Answer: The value was 6.31 µg.

Question: What about the “amount of drug in the stratum corneum, iontophoretic” value ([2]; in vitro, 0.2 mA/cm^2 15 min, end of 24 hr study, tape stripping) of the same compound?
Answer: Its value is 7.53 µg.

Question: What about the “amount of drug in the underlying skin, passive” value ([2]; in vitro, end of 24 hr study, skin extraction) of the same compound?
Answer: Its value is 6.27 µg.

Question: And the “amount of drug in the stratum corneum, passive” value ([2]; in vitro, end of 24 hr study, tape stripping)?
Answer: Its value is 1.31 µg.

Question: What about the “imiquimod delivered to the skin” value ([3]; 15 min iontophoresis at 0.2 mA/cm^2) of the same compound?
Answer: Its value is “approximately 14 ug”.

Question: What about the “total skin drug level, iontophoretic delivery, after 15 min” value ([3]; in vivo, 2% w/w, pH 3.6, 0.2 mA/cm^2, 15 min) of the same compound?
Answer: Its value is 14.19 ± 2.07 µg.

Question: What about the “total skin drug level, passive delivery, after 15 min” value ([3]; in vivo, 2% w/w, pH 3.6, passive, 15 min) of the same compound?
Answer: The value was 3.26 ± 0.63 µg.

Question: And the “drug detection in the stratum corneum at 72 hrs, iontophoretic” value ([3]; in vivo, 2% w/w, 72 hrs)?
Answer: The value was “still detected”.

Question: What about the “drug detection in the underlying skin at 72 hrs, iontophoretic” value ([3]; in vivo, 2% w/w, 72 hrs) of the same compound?
Answer: The value was “No drug was detected”.

Question: And the “drug detection in the underlying skin at 72 hrs, passive” value ([3]; in vivo, 2% w/w, 72 hrs)?
Answer: The value was “No drug was detected”.

Question: And the “total skin drug level, iontophoretic delivery, at 72 hrs” value [3, 7]?
Answer: Its value is 5.50 ± 2.76 µg.

Question: And the “total skin drug level, passive delivery, at 72 hrs” value [3, 7]?
Answer: The value was 1.96 ± 0.37 µg.

Question: What about the “irritation or redness of the skin” value [4] of the same compound?
Answer: Its value is “not observed”.

Question: What about the “log P” value [5] of the same compound?
Answer: The value was 2.7.

Question: And the pKa [5]?
Answer: Its pKa is 7.3.

Question: And the “drug in the stratum corneum, iontophoresis” value [6, 8]?
Answer: Its value is 11.91 µg.

Question: And the “drug in the underlying tissue, iontophoresis” value [6, 8]?
Answer: Its value is 0.591 µg.

Question: What about the “drug detection in the stratum corneum at 72 hr, iontophoresis” value ([6]; 0.3% w/w, 72 hr from treatment) of the same compound?
Answer: Its value is “still detected”.

Question: And the “drug detection in the stratum corneum at 72 hr, passive” value ([6]; 0.3% w/w, 72 hr from treatment)?
Answer: Its value is “no drug was detected”.

Question: And the “drug detection in the underlying skin at 72 hr, iontophoresis” value ([6]; 0.3% w/w, 72 hr from treatment)?
Answer: Its value is “still detected”.

Question: And the “drug in the underlying tissue at 72 hr, passive” value ([6]; 0.3% w/w, 72 hr from treatment)?
Answer: Its value is “small amount of drug was also present”.

Question: And the “drug level in the stratum corneum, iontophoresis vs passive” value ([6]; 0.3% w/w, after 15 min of treatment)?
Answer: Its value is 10 fold.

Question: What about the “drug in the stratum corneum, passive” value [6, 9] of the same compound?
Answer: Its value is 1.07 µg.

Question: What about the “drug in the underlying skin, passive” value [6, 9] of the same compound?
Answer: The value was 0.40 µg.

Question: What about the “residence time of the depot in the stratum corneum after iontophoresis” value ([6]; iontophoresis) of the same compound?
Answer: Its value is “more than 72 hr”.
